Test: Water retention property test 2 (hydrates)
Type: physicochemical
Settings: hydrate (anhydrides: aqueous solution at mono- to trihydrate concentration); for Pre-test moisture rate: before the test; for Post-test moisture rate / Rate of reduction in moisture: unsealed, 24 hours at 40° C. and 25% RH
Experimental: (2) Water retention property test 2 The water retention property of the hydrate of each compound was evaluated. Hydrates were used in the cases of the compounds C1 to C38, C40 to C49 and C56 to C59; however, since the compounds C39 and C62 to C64 were anhydrides, there were used aqueous solutions prepared by adding water so that a concentration would be that of monohydrate to trihydrate. The moisture rate of the sample(s) was confirmed using a Karl Fischer moisture meter (pre-test moisture rate: A). Next, 1.0 g of each of these samples was added to a screw tube, and this screw tube, while remaining unsealed, was then left to stand still for 24 hours in a thermo-hygrostat set to 40° C. and 25% RH. A moisture rate after 24 hours was again measured (post-test moisture rate: B), followed by calculating a rate of reduction in moisture in a similar manner as above so as to evaluate the water retention property. Here, a comparative evaluation was performed on each hydrate of the compounds C1 to C38, C40 to C49 and C56 to C59 together with an aqueous solution(s) of the compound C39 having a concentration(s) corresponding to the numbers of these hydration waters.
(monohydrates in compounds C1 to C38, C40 to C49 and C56 to C59 of working examples C62 to C99, C103 to C116 with compound C39 of working example C100, compound C62 of comparative example C4, compound C63 of comparative example C7 and compound C64 of comparative example C10)
(dihydrates in compounds C1 to C38, C40 to C49 and C56 to C59 of working examples C62 to C99, C103 to C116 with compound C39 of working example C101, compound C62 of comparative example C5, compound C63 of comparative example C8 and compound C64 of comparative example C11)
(trihydrates in compounds C1 to C38, C40 to C49 and C56 to C59 of working examples C62 to C99, C103 to C116 with compound C39 of working example C102, compound C62 of comparative example C6, compound C63 of comparative example C9 and compound C64 of comparative example C12)

Row | SMILES | Pre-test moisture rate | Post-test moisture rate | Rate of reduction in moisture
1 | CCCC[N+](CCCC)(CCCC)CCCC.[Br-] [Comparative example C4] | 2.5% | 4.9% | 8.1%
2 | CCCC[N+](CCCC)(CCCC)CCCC.[Br-] [Comparative example C5] | 10.1% | 8.6% | 15.1%
3 | CCCC[N+](CCCC)(CCCC)CCCC.[Br-] [Comparative example C6] | 14.4% | 10.8% | 25.1%
4 | CCCCn1cc[n+](C)c1.F[B-](F)(F)F [Comparative example C7] | 7.4% | 3.9% | 47.3%
5 | CCCCn1cc[n+](C)c1.F[B-](F)(F)F [Comparative example C8] | 13.8% | 7.1% | 48.6%
6 | CCCCn1cc[n+](C)c1.F[B-](F)(F)F [Comparative example C9] | 19.3% | 11.2% | 42.1%
7 | OCC(O)CO [Comparative example C10] | 16.4% | 15.3% | 6.7%
8 | OCC(O)CO [Comparative example C11] | 28.1% | 24.4% | 13.3%
9 | OCC(O)CO [Comparative example C12] | 37.0% | 31.9% | 13.7%
10 | O=C1O[C@H]([C@@H](O)CO)C(O)=C1O.OCCNCCO [Comparative example C104] | 11.4% | 11.0% | 3.5%
11 | O=C1OC(C(O)CO)C(O)=C1O.OCCN(CCO)CCO (stereo not drawn) [Comparative example C105] | 10.0% | 9.8% | 2.0%
12 | NC(CO)CO.O=C1O[C@H]([C@@H](O)CO)C(O)=C1O [Comparative example C106] | 11.9% | 11.7% | 1.7%
13 | CC(O)C(=O)O.NCCO (stereo not drawn) [Working example C62] | 10.7% | 10.5% | 1.9%
14 | CC(O)C(=O)O.OCCNCCO [Working example C63] | 15.6% | 14.9% | 4.6%
15 | O=C(O)CO.OCCNCCO [Working example C64] | 16.6% | 16.1% | 3.0%
16 | O=C(O)CCC(=O)O.OCCNCCO [Working example C65] | 13.9% | 13.1% | 6.0%
17 | CC(O)C(=O)O.OCCN(CCO)CCO [Working example C66] | 18.4% | 17.7% | 3.8%
18 | CC(=O)O.NC(CO)CO [Working example C67] | 19.3% | 18.8% | 2.8%
19 | NC(CO)CO.O=C(O)CO [Working example C68] | 17.7% | 17.3% | 2.0%
20 | CC(O)C(=O)O.NC(CO)CO (stereo not drawn) [Working example C69] | 16.6% | 16.1% | 2.8%
21 | NC(CO)CO.O=C(O)CCC(=O)O [Working example C70] | 14.7% | 13.9% | 5.4%
22 | NC(CO)CO.O=C(O)CC(O)(CC(=O)O)C(=O)O [Working example C71] | 11.3% | 10.7% | 5.4%
23 | CS(=O)(=O)O.NC(CO)CO [Working example C72] | 16.1% | 16.0% | 0.4%
24 | F[B-](F)(F)F.[NH3+]C(CO)CO [Working example C73] | 16.8% | 15.9% | 5.5%

Row | SMILES | Pre-test moisture rate | Post-test moisture rate | Rate of reduction in moisture
25 | Br.NC(CO)CO [Working example C74] | 17.3% | 15.7% | 9.5%
26 | Cl.NC(CO)CO [Working example C75] | 22.0% | 19.7% | 10.5%
27 | CC(O)C(=O)O.CCC(N)(CO)CO [Working example C76] | 14.7% | 14.3% | 3.0%
28 | CCC(N)(CO)CO.O=C(O)CC(O)(CC(=O)O)C(=O)O [Working example C77] | 10.4% | 9.9% | 4.9%
29 | CCC(N)(CO)CO.CS(=O)(=O)O [Working example C78] | 14.3% | 14.2% | 0.9%
30 | Br.CCC(N)(CO)CO [Working example C79] | 15.3% | 13.9% | 8.9%
31 | CCC(N)(CO)CO.Cl [Working example C80] | 18.8% | 17.0% | 9.8%
32 | CC(O)C(=O)O.NC(CO)(CO)CO [Working example C81] | 13.2% | 12.9% | 2.6%
33 | NC(CO)(CO)CO.O=C(O)CC(O)(CC(=O)O)C(=O)O [Working example C82] | 10.3% | 9.8% | 5.0%
34 | CS(=O)(=O)O.NC(CO)(CO)CO [Working example C83] | 14.2% | 14.0% | 1.1%
35 | CC(O)C(=O)O.NCC(O)C(O)C(O)C(O)CO (stereo not drawn) [Working example C84] | 11.7% | 11.4% | 2.8%
36 | CC(O)C(=O)O.N (stereo not drawn) [Working example C85] | 14.4% | 13.7% | 4.7%
37 | CC(O)C(=O)[O-].CCC(CO)(CO)[N+](CC(O)CO)(CC(O)CO)CC(O)CO (stereo not drawn) [Working example C86] | 7.9% | 7.5% | 4.8%
38 | CC(O)C(=O)[O-].OCC[N+](CCO)(CCO)CCO [Working example C87] | 11.2% | 10.7% | 4.8%
39 | CC(=O)[O-].C[N+](C)(C)CCO [Working example C88] | 9.9% | 9.5% | 4.0%
40 | C[N+](C)(C)CCO.O=C([O-])CO [Working example C89] | 9.1% | 8.9% | 2.6%
41 | CC(O)C(=O)[O-].C[N+](C)(C)CCO [Working example C90] | 8.5% | 8.1% | 4.9%
42 | C[N+](C)(C)CCO.O=C([O-])C=CC(=O)O [Working example C91] | 7.6% | 7.2% | 5.0%
43 | C[N+](C)(C)CCO.O=C([O-])CCC(=O)O [Working example C92] | 7.5% | 7.1% | 5.0%
44 | CS(=O)(=O)[O-].C[N+](C)(C)CCO [Working example C93] | 8.3% | 8.1% | 2.0%
45 | C[N+](C)(C)CCO.O=P([O-])(O)O [Working example C94] | 8.2% | 8.0% | 2.8%
46 | C[N+](C)(C)CCO.O=[PH2][O-] [Working example C95] | 9.6% | 9.3% | 2.9%
47 | C[N+](C)(C)CCO.[Cl-] [Working example C96] | 11.4% | 10.7% | 6.0%

— patent US20250090437A1, “COSMETIC COMPOUNDING AGENT, COSMETIC AND PRODUCTION METHOD THEREOF” (MIYOSHI OIL & FAT CO., LTD., priority 2019, published 2025)
